Values of other authors as cited in patent US9238083B2, “Molecular probe for imaging of pancreatic islets and use of the same” (Kyoto University, priority 2009, dated 2016).

Tests used:
[1] = system: GLP-1R-positive tumor cells; conditions: cited from earlier work
pancreatic islet cells = conditions: cited from earlier work

Lys^40(Ahx-DTPA-^111In)Exendin-4(9-39)
uptake in the GLP-1R-positive tumor cells [1]: about 7.5% | uptake in pancreatic islets (pancreatic islet cells): about 0.4% | affinity with respect to GLP-1R (pancreatic islet cells; conclusion from the uptake results): low affinity
